The test system of one assay is ApoE/LDLR−/− mice. Description: MRI-based assessment of NO-dependent vasodilatation in BCA and LCA after acetylcholine (Example 2). The class given is in vivo. To be noted: two months, 25 min after Ach. As to the method:
The effects of low-doses (0.03 mg/kg b.w./day) as well as high-doses (10 mg/kg b.w./day) of vitamin K2 (MK-7), on endothelial function in mice with pre-established atherosclerosis was assessed. The mice were treated with K2 (MK-7) for two months and endothelial function was analyzed in vivo based on functional study (MRI based assessment of NO-dependent vasodilation) as well as by biochemical analysis (plasma nitrate and nitrite concentration). In addition, a comprehensive qualitative and quantitative histological analysis of the effects of K2 (MK-7) on vascular wall structure and atherosclerosis plaque composition was performed.
Endpoint assays: Magnetic resonance imaging (MRI)-based assessment of nitric oxide (NO)-dependent vasodilatation in brachiocephalic (BCA) and left common carotid artery (LCA) after acetylcholine (Ach) administration—by MRI 9.4T scanner, total time of measurements: 114 h (1.5 h per animal), acetylcholine (Ach, 16.6 mg/kg b.w.)
Studies were performed on 4-month old female ApoE/LDLR−/− mice, the model initially described by Ishibashi S, Herz J, Maeda N, Goldstein J, Brown M. The two-receptor model of lipoprotein clearance: tests of the hypothesis in “knockout” mice lacking the low density lipoprotein receptor, apolipoprotein E, or both proteins. Proc Natl Acad Sci USA 1994; 10:4431-5., and extensively characterized in previous studies, [see Kostogrys RB, Franczyk-Zarow M, Gasior-Glogowska M, Kus E, Jasztal A, Wrobel T P, et al. Anti-atherosclerotic effects of pravastatin in brachiocephalic artery in comparison with en face aorta and aortic roots in ApoE/LDLR−/− mice. Pharmacol Reports 2017; 69:112-8. doi:10.1016/j.pharep.2016.09.014; Tyrankiewicz U, Skorka T, Orzylowska A, Jablonska M, Jasinski K, Jasztal A, et al. Comprehensive MRI for the detection of subtle alterations in diastolic cardiac function in apoE/LDLR −/− mice with advanced atherosclerosis. […] End-diastolic volumes of BCA and LCA were analyzed using ImageJ software (1.46r NIH Bethesda, Md., USA) and scripts written in Matlab (MathWorks, Natick, Mass., USA) (FIG. 1A).

The test system of assay [1] is endothelial nitric oxide synthase (eNOS)-dependent nitric oxide (NO) production. Description: Endothelial NO production in ex vivo aorta by EPR spin-trapping. Particulars: 0.05 mg/kg b.w./day, vs untreated age-matched mice. From the text:
For measurements of endothelial nitric oxide synthase (eNOS)-dependent nitric oxide (NO) production, EPR spin-trapping with diethyldithiocarbamic acid sodium salt (DETC) was used ex vivo, as described in Przyborowski K, Proniewski B, Czarny J, Smeda M, Sitek B, Zakrzewska A, et al. Vascular Nitric Oxide-Superoxide Balance and Thrombus Formation after Acute Exercise. Med Sci Sport Exerc 2018:1. doi:10.1249/MSS.0000000000001589, with minor modifications. Isolated aorta cleared from surrounding tissue was opened longitudinally and preincubated with 10 μM L-NIL (N6-(1-Iminoethyl)-lysine, hydrochloride) in Krebs-HEPES buffer for 30 minutes at 37° C. in a well of a 48-well plate. Next, 250 μL of Fe(DETC)2 colloid was added and aorta was stimulated with calcium ionophore A23187 (the final concentration was 1 μM) and subsequently, incubated for 90 minutes at 37° C. Finally, aorta was weighed and frozen in liquid nitrogen (suspended in fresh buffer) into the middle of a 400 μL column of Krebs-Hepes buffer and stored at −80° C. until measured. EPR spectra were obtained using an X-band EPR spectrometer (EMX Plus, Bruker, Germany), equipped with a rectangular resonator cavity H102. Signals were quantified by measuring the total amplitude of the NO-Fe(DETC)2 after correction of baseline. The quantitative results of NO production assessed by EPR were expressed in AU/mg of tissue.

Data on one compound can be found in patent US20220160651A1, “RAPIDLY IMPROVING ENDOTHELIAL FUNCTION, REDUCING ARTERIAL STIFFNESS AND REVERSING CALCIFICATION OF BLOOD VESSELS BY ADMINISTERING VITAMIN K” (KAYDENCE PHARMA AS, priority 2019, published 2022).

“And” between values parts separate entries of the source, which are not always exact repeats. Identical values can stand only once.

As to `CC(C)=CCC/C(C)=C/CC/C(C)=C/CC/C(C)=C/CC/C(C)=C/CC/C(C)=C/CC/C(C)=C/CC1=C(C)C(=O)c2ccccc2C1=O` [MK-7, menaquinone-7], in the assay with ApoE/LDLR−/− mice (high dose 10 mg/kg b.w./day), the “vessel volume change of BCA after Ach injection” value came to 3.12% and the “vessel volume change of LCA after Ach injection” value worked out at 4.45%. In the assay on ApoE/LDLR−/− mice (low dose 0.03 mg/kg b.w./day, listed as vitamin MK-7, 0.03 mg/kg/day), the “vessel volume change of LCA after Ach injection” value is ~−3% and −3.92%. Further, in assay [1], the “nitric oxide production in ex vivo aorta by EPR” value is recorded as “increased nitric oxide production”.
